In patent US7772228B2, “Method for treatment of bacterial infections with once or twice-weekly administered rifalazil” (priority 1998, dated 2010):
In brackets after ≈: the same amount, converted by molar mass. Like-named read-outs stand apart in the source and are kept apart here.

Experiments:
[1] = system: M. tuberculosis; format: cell-based, Mycobacterium tuberculosis; details: comparison of MIC50 and MIC90, clinical isolates
[2] = system: M. intracellulare; assay: Mice infected with M. intracellulare, CFUs in organs; format: in vivo; details: after four and eight weeks of treatment
[3] = system: Chlamydia pneumoniae strain TW-l 83; assay: Sensitivity testing in cell cultures; format: cell-based
Procedure: Sensitivity testing was conducted in cell cultures against Chlamydia pneumoniae strain TW-l 83 using rifalazil, clanthromycin, or azithromycin. […] The in vivo testing of rifalazil used a mouse model infected with Chlamydia pneumoniae strain AR-39. […] All control animals remained infected.

[4] = Multiple-dose oral toxicology studies in dogs; format: in vivo
Procedure: In chronic studies with dogs and rats, the no-observed-adverse-effect-level was 1000 mg/kg. […] Significant partitioning of drug-related radioactivity to the formed elements of the blood was observed. […] The urine contained a small amount (5.5%) of radioactivity.
Single-dose and multiple-dose oral toxicology studies were conducted in mice, rats, and dogs. In addition, to maximize systemic exposure, single-dose intravenous (IV) and intraperitoneal (IP) studies were conducted in rats and mice. Four-week and 13-week oral studies in dogs and rats and 26-week oral studies in rats included standard clinical measurements and physical and pathological evaluations.

[5] = clinical; details: human, in vivo
Procedure: A total of four clinical trials have been conducted to study the effects of rifalazil in humans. Two single-dose Phase 1 clinical trials (001) and (002) assessed the safety and pharmacokinetics of rifalazil in normal, healthy, fasted subjects. In the 001 trial, a single 300 mg dose of rifalazil was administered to six subjects. In the 002 trial, single doses of 30 mg or 100 mg were administered to eight subjects each. The results of these studies indicated a substantially higher incidence of adverse reactions at the 300 mg dose compared to the 30 mg or 100 mg dose.
The pharmacokinetics of rifalazil in whole blood in these two clinical trials was similar to that of rifalazil pharmacokinetics in plasma. […] Therefore, future pharmacokinetic analyses focused on rifalazil concentrations in plasma. Table 7 summarizes noncompartmental parameters derived from plasma concentrations in fasted subjects following administration of single doses of 30 mg, 100 mg, or 300 mg of rifalazil in these studies.
Pharmacokinetic analyses associated with clinical trials involved measurement of concentrations of rifalazil in plasma and/or whole blood of subjects participating in the four Phase 1 studies using high performance liquid chromatography.

[6] = human, in vivo
Procedure: The third trial (003) was a randomized, rising, double-blind, multiple-dose, placebo-controlled study where subjects were observed during the 14-consecutive days of drug administration in dosages 0, 5 and 25 mg/day and for an additional 14 days without medication. All subjects received the dose within 30 minutes after eating a standardized breakfast. Subjects were divided into two groups. In Group 1, eight subjects were randomized to a daily 25 mg dose of rifalazil and four subjects were randomized to placebo. Numerous adverse reactions began to appear with the 25 mg dose several days after dosing and it became apparent that 25 mg daily dose was not safe. Consequently, after review of the safety data, the study protocol was amended to proceed with a lower dose of 5 mg in group 2. Group 2 consisted of eight subjects randomized to a daily 5 mg dose of rifalazil and four subjects randomized to placebo.
In the clinical trials 001 and 002 all patients were submitted to laboratory testing where the hematology, serum chemistry and urinanalysis were examined prior to dosing, during dosing and at least 14 days following the cessation of drug administration.
Laboratory testing regimen for 003 and 004 trials was the same as for 001 and 002 trials.
The onset and magnitude of decrease in hematologic parameters appeared to be related to this dose. In order to better visualize the drop and subsequent recovery in these parameters, the data were graphed to synchronize subjects to their last dose.

[7] = system: M. tuberculosis; details: cited from earlier work
[8] = system: M. tuberculosis; details: cited from earlier work; remark: listed apart in the source
[9] = system: extracellular M. tuberculosis; details: cited from earlier work
[10] = system: M. tuberculosis strain Erdman; details: cited from earlier work
[11] = system: M. tuberculosis; details: eight weeks treatment; cited from earlier work
[12] = system: Helicobacter pylori; parameters: unit of the concentration uncertain; details: time-kill, broth medium, 0.04 (unit uncertain); cited from earlier work
[13] = Ref. 7, 7H11 agar, 22 strains (rif^r and rif^s)
[14] = Ref. 1, BACTEC, 30 strains (rif^r and rif^s)
[15] = Ref. 2, BACTEC, 24 strains (rif^r and rif^s)
[16] = Ref. 3, BACTEC, 13 strains (rif^s)
[17] = Ref. 4, BACTEC, 11 strains (rif^r)
[18] = Ref. 5, BACTEC, 20 strains (rif^s)
[19] = thirty clinical isolates, BACTEC

With `CO[C@H]1/C=C/O[C@@]2(C)Oc3c(C)c(O)c4c(=O)c(c5oc6cc(N7CCN(CC(C)C)CC7)cc(O)c6nc-5c4c3C2=O)NC(=O)/C(C)=C\C=C\[C@H](C)[C@H](O)[C@@H](C)[C@@H](O)[C@@H](C)[C@H](OC(C)=O)[C@@H]1C` [Rifalazil, 3′-hydroxy-5′-(4-isobutyl-1-piperazinyl)benzoxasinorifamycin] the “fold greater activity than rifabutin” value [1] was 4 fold, the “fold greater activity than rifampin” value [1] was > 64 fold and the “number of CFUs in organs” value [2] was “significantly reduced the number of colony forming units (CFUs) in organs”. The “fold more potent than clanthromycin” value [3] was 300 fold, the “fold more potent than erythromycin” value [3] was 1500 fold and the liver weight ([4]; 1,000 mg/kg, four weeks daily dosing) was “slight increase in liver weight”. The “no observable adverse effect level” value ([4]; 13-week study, daily oral) was 300 mg/kg, the no-observed-adverse-effect-level ([4]; chronic studies, dogs) was 1000 mg/kg and the “doses at which hematological changes were noted” value ([4]; multiple-dose oral, dogs) was > 30 mg/kg. For the same compound, the “plasma to blood ratio” value [5] was 1.6:1, the AUC(0-inf) ([5]; 30 mg) was 505 ng·h/mL and the AUC(0-t) ([5]; 30 mg) was 197 ng·h/mL. For the same compound, the Cmax ([5]; 30 mg) was 17.8 ng/mL, the Tmax ([5]; 30 mg) was 3.1 h and the half-life ([5]; 30 mg) was 48.7 h. For the same compound, the AUC(0-inf) ([5]; 100 mg) was 1540 ng·h/mL, the AUC(0-t) ([5]; 100 mg) was 800 ng·h/mL and the Cmax ([5]; 100 mg) was 53.6 ng/mL. The Tmax ([5]; 100 mg) was 4 h, the half-life ([5]; 100 mg) was 43.1 h and the AUC(0-inf) ([5]; 300 mg) was 4330 ng·h/mL. The AUC(0-t) ([5]; 300 mg) was 1450 ng·h/mL, the Cmax ([5]; 300 mg) was 116 ng/mL and the Tmax ([5]; 300 mg) was 3 h. The half-life ([5]; 300 mg) was 206 h, the “WBC counts, level of continuous drop” value [6] was “around 2.0 K/CU MM” and the “nadir of mean WBC after the last dose” value [6] was 1 to 2 days. For the same compound, the “time for hematologic parameters to return to normal after the last dose” value [6] was ≤ 14 days, the MIC90 ([7]; 22 strains, agar dilution) was 12.5 µg/mL (≈ 13.3 µM) and the MIC90 [7, 13] was 12.5 µg/mL (≈ 13.3 µM). The “MIC Range” value [7, 13] was “≦0.0125 to 12.5^ μg/mL”, the MIC90 ([7]; Ref. 8, 7H11 agar, 16 strains (rif^s)) was “≦0.0125 μg/mL” and the MIC90 [8, 14] was 2.0 µg/mL (≈ 2.13 µM). The “MIC Range” value [8, 14] was “≦0.002 to 4.0^ μg/mL”, the MIC90 [8, 15] was 4.0 µg/mL (≈ 4.25 µM) and the “MIC Range” value [8, 15] was 0.0009 to 4.0 µg/mL. The MIC90 [8, 16] was 0.0156 µg/mL (≈ 0.0166 µM), the “MIC Range” value [8, 16] was 0.0009 to 0.125 µg/mL and the MIC90 [8, 17] was 4.0 µg/mL (≈ 4.25 µM). For the same compound, the “MIC Range” value [8, 17] was 0.062 to 4.0 µg/mL, the MIC90 [8, 18] was <0.125 µg/mL and the “MIC Range” value [8, 18] was <0.125 µg/mL. For the same compound, the MIC90 ([8]; Ref. 6, BACTEC, 20 strains (rif^r)) was >2.0 µg/mL, the MIC ([8]; reference strain H37Rv, BACTEC) was 0.004 µg/mL (≈ 0.00425 µM) and the MIC ([8]; reference strain Kurono, BACTEC) was 0.002 µg/mL (≈ 0.00213 µM). The MIC90 ([8]; rifampin-sensitive Mycobacterium tuberculosis) was 0.0156 µg/mL (≈ 0.0166 µM), the “MIC50 50% inhibition” value [8, 19] was 0.016 µg/mL (≈ 0.017 µM) and the “MIC90 90% inhibition” value [8, 19] was 2.0 µg/mL (≈ 2.13 µM). The MBC ([9]; strain Atencio) was 0.008 µg/mL (≈ 0.0085 µM), the MIC ([9]; strain Atencio) was 0.001 µg/mL (≈ 0.00106 µM) and the MBC ([9]; strain Erdman) was 0.004 µg/mL (≈ 0.00425 µM). The MIC ([9]; strain Erdman) was 0.002 µg/mL (≈ 0.00213 µM), the MBC ([9]; strain H37Rv) was 0.031 µg/mL (≈ 0.0329 µM) and the MIC ([9]; strain H37Rv) was 0.008 µg/mL (≈ 0.0085 µM). For the same compound, the “reduction of bacterial load in lungs and spleens, comparison of drugs” value ([10]; 20 mg/kg, five times per week for four weeks) was “reduced bacterial loads to a significantly greater extent than the other two drugs”, the “activity against organisms in lungs, comparison of treatments” value ([10]; four weeks treatment) was “most active single-agent” and the “cell counts in lungs compared to early controls” value ([10]; four weeks treatment) was “significantly reduced cell counts in lungs”. For the same compound, the “cell counts in lungs compared to late controls” value ([10]; four weeks treatment) was “reduced cell counts in lungs”, the “CFUs in the spleen” value ([10]; rifalazil 20 mg/kg, PZA 150 mg/kg, four weeks) was “most active single-agent” and the “gross lung lesions, bacterial loads, survival time versus rifampin” value [11] was “outperformed rifampin in treating the disease”. For the same compound, the “CFUs at 24 hours lower than the control at zero hours” value [12] was “more than 4.5 log”.
